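How tested: cells in 96-well plates exposed to compound for 48 hours at five concentrations. GI50 marks 50% less growth. The concentration for full growth arrest is given as TGI.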
Legend:
Assay in all cases: NCI-60 cell line screen, 48 h
NCI-H460 lung = tested on: NCI-H460 lung
HT29 colon = tested on: HT29 colon
CAKI-1 renal = tested on: CAKI-1 renal
BT-549 breast = tested on: BT-549 breast
OVCAR-5 ovarian = tested on: OVCAR-5 ovarian
HS 578T breast = tested on: HS 578T breast
NCI-H522 lung = tested on: NCI-H522 lung
SNB-75 CNS = tested on: SNB-75 CNS
786-0 renal = tested on: 786-0 renal
MDA-MB-231 breast = tested on: MDA-MB-231 breast
NCI-H226 lung = tested on: NCI-H226 lung
TK-10 renal = tested on: TK-10 renal
PC-3 prostate = tested on: PC-3 prostate
HOP-92 NSCLC = tested on: HOP-92 NSCLC
M14 melanoma = tested on: M14 melanoma
A498 renal = tested on: A498 renal
COLO 205 colon = tested on: COLO 205 colon
HCC-2998 colon = tested on: HCC-2998 colon
HL-60(TB) leukemia = tested on: HL-60(TB) leukemia
UO-31 renal = tested on: UO-31 renal
NCI/ADR-RES ovarian = tested on: NCI/ADR-RES ovarian
SW-620 colon = tested on: SW-620 colon
SK-MEL-28 melanoma = tested on: SK-MEL-28 melanoma
SF-295 CNS = tested on: SF-295 CNS
HOP-62 NSCLC = tested on: HOP-62 NSCLC
NCI-H23 lung = tested on: NCI-H23 lung
OVCAR-8 ovarian = tested on: OVCAR-8 ovarian
SNB-19 CNS = tested on: SNB-19 CNS
OVCAR-3 ovarian = tested on: OVCAR-3 ovarian
HCT-15 colon = tested on: HCT-15 colon
MOLT-4 leukemia = tested on: MOLT-4 leukemia
SF-539 CNS = tested on: SF-539 CNS
UACC-257 melanoma = tested on: UACC-257 melanoma
EKVX NSCLC = tested on: EKVX NSCLC
T-47D breast = tested on: T-47D breast
U251 CNS = tested on: U251 CNS
LOX IMVI melanoma = tested on: LOX IMVI melanoma
KM12 colon = tested on: KM12 colon
HCT-116 colon = tested on: HCT-116 colon
ACHN renal = tested on: ACHN renal
SR leukemia = tested on: SR leukemia
SK-OV-3 ovarian = tested on: SK-OV-3 ovarian
RPMI-8226 leukemia = tested on: RPMI-8226 leukemia
RXF 393 renal = tested on: RXF 393 renal
MCF7 breast = tested on: MCF7 breast
SF-268 CNS = tested on: SF-268 CNS
OVCAR-4 ovarian = tested on: OVCAR-4 ovarian
A549 NSCLC = tested on: A549 NSCLC
IGROV1 ovarian = tested on: IGROV1 ovarian
MALME-3M melanoma = tested on: MALME-3M melanoma
SK-MEL-5 melanoma = tested on: SK-MEL-5 melanoma
K-562 leukemia = tested on: K-562 leukemia
SN12C renal = tested on: SN12C renal
DU-145 prostate = tested on: DU-145 prostate
UACC-62 melanoma = tested on: UACC-62 melanoma
MDA-MB-435 = tested on: MDA-MB-435
CCRF-CEM leukemia = tested on: CCRF-CEM leukemia
SK-MEL-2 melanoma = tested on: SK-MEL-2 melanoma

CC1=C(CN(O)C(N)=O)C2=C(C)C3(CC3)[C@](C)(O)C(=O)C2=C1
GI50 (NCI-H460 lung): 2.55 µM | TGI (NCI-H460 lung): > 100 µM | GI50 (HT29 colon): 0.412 µM | TGI (HT29 colon): 13.9 µM | GI50 (CAKI-1 renal): 1.91 µM | TGI (CAKI-1 renal): > 100 µM | GI50 (BT-549 breast): 1.18 µM | TGI (BT-549 breast): 3.18 µM | GI50 (OVCAR-5 ovarian): 0.374 µM | TGI (OVCAR-5 ovarian): 5.07 µM | GI50 (HS 578T breast): 2.63 µM | TGI (HS 578T breast): 9.16 µM | GI50 (NCI-H522 lung): 0.721 µM | TGI (NCI-H522 lung): 4.6 µM | GI50 (SNB-75 CNS): 1.28 µM | TGI (SNB-75 CNS): 3.39 µM | GI50 (786-0 renal): 2.36 µM | TGI (786-0 renal): 15.5 µM | GI50 (MDA-MB-231 breast): 1.11 µM | TGI (MDA-MB-231 breast): 5.88 µM | GI50 (NCI-H226 lung): 2.03 µM | TGI (NCI-H226 lung): 6.36 µM | GI50 (TK-10 renal): 2.01 µM | TGI (TK-10 renal): 8.02 µM | GI50 (PC-3 prostate): 1.46 µM | TGI (PC-3 prostate): 11.5 µM | GI50 (HOP-92 NSCLC): 1.08 µM | TGI (HOP-92 NSCLC): 4.21 µM | GI50 (M14 melanoma): 0.819 µM | TGI (M14 melanoma): 2.96 µM | GI50 (A498 renal): 1.35 µM | TGI (A498 renal): 3.25 µM | GI50 (COLO 205 colon): 0.753 µM | TGI (COLO 205 colon): 4.58 µM | GI50 (HCC-2998 colon): 0.219 µM | TGI (HCC-2998 colon): 0.54 µM | GI50 (HL-60(TB) leukemia): 0.952 µM | TGI (HL-60(TB) leukemia): > 100 µM | GI50 (UO-31 renal): 0.254 µM | TGI (UO-31 renal): 0.83 µM | GI50 (NCI/ADR-RES ovarian): 2 µM | TGI (NCI/ADR-RES ovarian): 31.2 µM | GI50 (SW-620 colon): 1.08 µM | TGI (SW-620 colon): > 100 µM | GI50 (SK-MEL-28 melanoma): 0.732 µM | TGI (SK-MEL-28 melanoma): 3 µM | GI50 (SF-295 CNS): 0.789 µM | TGI (SF-295 CNS): > 100 µM | GI50 (HOP-62 NSCLC): 1.85 µM | TGI (HOP-62 NSCLC): 58.7 µM | GI50 (NCI-H23 lung): 2.28 µM | TGI (NCI-H23 lung): 9.83 µM | GI50 (OVCAR-8 ovarian): 0.634 µM | TGI (OVCAR-8 ovarian): > 100 µM | GI50 (SNB-19 CNS): 2.58 µM | TGI (SNB-19 CNS): > 100 µM | GI50 (OVCAR-3 ovarian): 0.557 µM | TGI (OVCAR-3 ovarian): 4.15 µM | GI50 (HCT-15 colon): 1.29 µM | TGI (HCT-15 colon): 24.8 µM | GI50 (MOLT-4 leukemia): 9.02 µM | TGI (MOLT-4 leukemia): > 100 µM | GI50 (SF-539 CNS): 2.08 µM | TGI (SF-539 CNS): 6.38 µM | GI50 (UACC-257 melanoma): 3.02 µM | TGI (UACC-257 melanoma): 31.3 µM | GI50 (EKVX NSCLC): 2.34 µM | TGI (EKVX NSCLC): 6.85 µM | GI50 (T-47D breast): 0.992 µM | TGI (T-47D breast): > 100 µM | GI50 (U251 CNS): 3.47 µM | TGI (U251 CNS): > 100 µM | GI50 (LOX IMVI melanoma): 6.38 µM | TGI (LOX IMVI melanoma): 36.6 µM | GI50 (KM12 colon): 0.798 µM | TGI (KM12 colon): 11.5 µM | GI50 (HCT-116 colon): 1.39 µM | GI50 (ACHN renal): 1.13 µM | TGI (ACHN renal): 8.69 µM | GI50 (SR leukemia): 0.896 µM | TGI (SR leukemia): > 100 µM | GI50 (SK-OV-3 ovarian): 2.62 µM | TGI (SK-OV-3 ovarian): 9.96 µM | GI50 (RPMI-8226 leukemia): 0.348 µM | TGI (RPMI-8226 leukemia): 2.67 µM | GI50 (RXF 393 renal): 0.328 µM | TGI (RXF 393 renal): 1.19 µM | GI50 (MCF7 breast): 0.366 µM | TGI (MCF7 breast): > 100 µM | GI50 (SF-268 CNS): 1.72 µM | TGI (SF-268 CNS): > 100 µM | GI50 (OVCAR-4 ovarian): 1.79 µM | TGI (OVCAR-4 ovarian): 9.19 µM | GI50 (A549 NSCLC): 3.03 µM | TGI (A549 NSCLC): > 100 µM | GI50 (IGROV1 ovarian): 2.24 µM | TGI (IGROV1 ovarian): 6.38 µM | GI50 (MALME-3M melanoma): 1.83 µM | TGI (MALME-3M melanoma): 3.88 µM | GI50 (SK-MEL-5 melanoma): 5.61 µM | TGI (SK-MEL-5 melanoma): 18.5 µM | GI50 (K-562 leukemia): 1.39 µM | TGI (K-562 leukemia): > 100 µM | GI50 (SN12C renal): 2.62 µM | TGI (SN12C renal): > 100 µM | GI50 (DU-145 prostate): 0.452 µM | TGI (DU-145 prostate): 26 µM | GI50 (UACC-62 melanoma): 1.29 µM | TGI (UACC-62 melanoma): 3.06 µM | GI50 (MDA-MB-435): 0.382 µM | TGI (MDA-MB-435): 1.43 µM | GI50 (CCRF-CEM leukemia): 2.22 µM | TGI (CCRF-CEM leukemia): > 100 µM | GI50 (SK-MEL-2 melanoma): 2.11 µM | TGI (SK-MEL-2 melanoma): 4.85 µM
